The text below walks through data of patent US20260200920A1, “SUBSTITUTED AMINOPYRIDINE COMPOUNDS FOR USE AS AKT1 INHIBITORS” (Atavistik Bio, Inc., priority 2023, published 2026).

Each structure is given as a SMILES string.

For assay [1], the target named is T1, human recombinant kinase full-length wildtype AKT1 (Homo sapiens, UniProt P31749).
T1 construct: Purified human recombinant kinase full-length wildtype AKT1 was expressed in insect cells; made in house; host or cells: insect cells
Nature of the assay: AKT1 kinase assay (wildtype, TR-FRET, Lance). In kind it is biochemical. The note with it: 0.6 nM wildtype AKT1, 50 nM Ulight-CREBtide, either 50 μM ATP or 2 mM ATP, 60 min at RT. The method in brief: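 TR-FRET 665/620 ratio quantified phospho-CREBtide formed by PDPK1-activated full-length human AKT1 (0.6 nM, insect-cell-derived) over 60 min at RT with 50 nM ULight-CREBtide and either 50 μM or 2 mM ATP. Compounds were preincubated 15 min with enzyme; IC50 came from 4-parameter fits of 10-point duplicates.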
Background: In TR-FRET formats the signal depends on donor and acceptor labels being close together.

In assay [2] the target is T2, human recombinant kinase full-length AKT1 E17K (Homo sapiens, UniProt P31749, E17K).
T2 construct: Purified human recombinant kinase full-length AKT1 E17K was expressed in insect cells; made in house; host or cells: insect cells
Nature of the assay: AKT1 E17K kinase assay (TR-FRET, Lance). In kind it is biochemical. The note with it: 0.6 nM AKT1 E17K, 50 nM Ulight-CREBtide, either 50 μM ATP or 2 mM ATP, 60 min at RT. The method in brief: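 IC50 came from a 10-point, 4-parameter fit of the 665/620 TR-FRET ratio read with Eu-anti-phospho-CREB (Ser133). Reaction at RT for 60 min after 15 min compound preincubation, using 0.6 nM PDPK1-activated full-length AKT1 E17K (insect-cell), 50 nM Ulight-CREBtide, ATP at 50 μM or 2 mM, HEPES pH 7.5, 1% DMSO.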

T1 sequence (P31749 whole entry): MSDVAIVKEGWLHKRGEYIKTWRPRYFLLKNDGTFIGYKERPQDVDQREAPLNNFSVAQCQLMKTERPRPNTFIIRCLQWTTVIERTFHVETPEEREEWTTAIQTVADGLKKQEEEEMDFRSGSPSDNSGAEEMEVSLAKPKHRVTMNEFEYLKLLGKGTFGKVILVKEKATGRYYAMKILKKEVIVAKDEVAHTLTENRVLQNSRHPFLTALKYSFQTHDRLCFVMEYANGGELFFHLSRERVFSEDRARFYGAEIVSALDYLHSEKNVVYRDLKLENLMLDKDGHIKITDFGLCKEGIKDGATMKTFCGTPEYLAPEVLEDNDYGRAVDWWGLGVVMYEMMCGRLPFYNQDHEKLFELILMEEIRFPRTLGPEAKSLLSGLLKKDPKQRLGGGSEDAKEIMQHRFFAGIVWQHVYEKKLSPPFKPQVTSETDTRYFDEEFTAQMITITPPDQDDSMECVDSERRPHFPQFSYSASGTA
T2 sequence (P31749 whole entry E17K): as the sequence (P31749 whole entry) above, with E17K counted along it

For `Nc1ncccc1-c1nc2ccc(-c3ccccc3)nc2n1-c1ccc(CN2CC3(CC(C(=O)O)C3)C2)cc1` [Compound I-93, 2-(4-(2-(2-aminopyridin-3-yl)-5-phenyl-3H-imidazo[4,5-b]pyridin-3-yl)benzyl)-2-azaspiro[3.3]heptane-6-carboxylic acid], the concentration for half-maximal inhibition (IC50) in assay [1] is less than 20 µM; in assay [2] it was 0.5 to 2 µM.

For the molecule `Cc1nc(NC(=O)[C@H]2CC[C@H](C(=O)O)CC2)ccc1-n1c(-c2cccnc2N)nc2ccc(-c3ccc(F)cc3)nc21` [Compound I-215], the IC50 in assay [1] is less than 20 µM; in assay [2], 0.5 to 2 µM.

With `Cc1cc(C2CN(CC3CC4(C3)CC(C(=O)O)C4)C2)ccc1-n1c(-c2cccnc2N)nc2ccc(-c3ccccc3)nc21` (stereo not shown) [Compound I-204], the IC50 in assay [1] is less than 20 µM; in assay [2], less than 0.5 µM.

For the molecule `CC(C)(C(=O)O)C1CCN(Cc2ccc(-n3c(-c4cccnc4N)nc4ccc(-c5ccccc5)nc43)c(F)c2)C1` (stereo not shown) [Compound I-185], the half-inhibitory concentration (IC50) in assay [1] is less than 20 µM; in assay [2], 0.5 to 2 µM.

Regarding `Cc1c(-n2c(-c3cccnc3N)nc3ccc(-c4ccccc4)nc32)ccc(NC(=O)[C@H]2CC[C@H](C(=O)O)CC2)c1F` [Compound I-103, (1r,4r)-4-((4-(2-(2-aminopyridin-3-yl)-5-phenyl-3H-imidazo[4,5-b]pyridin-3-yl)-2-fluoro-3-methylphenyl)carbamoyl)cyclohexane-1-carboxylic acid], the results for the concentration for half-maximal inhibition (IC50) in assay [1] and in assay [2] were less than 20 µM and not below 2 µM, respectively.

On to `CC1(c2ccc(-n3c(-c4cccnc4N)nc4ccc(-c5ccccc5)nc43)cc2)CN(C[C@H]2CC[C@H](C(=O)O)CC2)C1` [Compound I-154], for which the 50% inhibitory concentration (IC50) in assay [1] was less than 20 µM; in assay [2] it was 0.5 to 2 µM.

For `Cc1nc(CN(C)[C@H]2CC[C@H](C(=O)O)CC2)ccc1-n1c(-c2cccnc2N)nc2ccc(-c3ccccc3)nc21` [Compound I-183], the IC50 in assay [1] is less than 20 µM; in assay [2], not below 2 µM.

Regarding `Nc1ncccc1-c1nc2ccc(-c3ccccc3)nc2n1-c1ccc(CN2CCC(CC(=O)O)CC2)cc1` [Compound I-97, 2-(1-(4-(2-(2-aminopyridin-3-yl)-5-phenyl-3H-imidazo[4,5-b]pyridin-3-yl)benzyl)piperidin-4-yl)acetic acid], the IC50 in assay [1] is less than 20 µM; in assay [2] it was 0.5 to 2 µM.

Usually IC50 stands for the concentration needed to halve the response being measured.
